Among the data in US10058540B2, “2-amino-5,5-difluoro-6-(fluoromethyl)-6-phenyl-3,4,5,6-tetrahydropyridines as BACE1 inhibitors” (H. Lundbeck A/S, priority 2014, dated 2018) are efflux ratio, Ki and inhibition values, retold here.

Series [1] relates to P-gp (MDR1). The series is described as follows: MDCK-MDR1 assay (permeability / Pgp efflux). The settings on record: dog, Papp BA/Papp AB, Pgp substrate when ≥2. In kind it is in vitro ADME. As to the method: The permeability of the test compounds was assessed in MDCK-MDR1 cells that were cultured to confluency (4-6 days) in a 96 transwell plate. Test compounds were diluted with the transport buffer (HBSS+1% BSA) to a concentration of 0.5 μM and applied to the apical or basolateral side of the cell monolayer. Permeation of the test compounds from A to B direction or B to A direction was determined in triplicate over a 60-minute incubation time at 37° C. and 5% CO2 with a relative humidity of 95%. Test compounds were quantified by LC-MS/MS analysis based on the peaks area ratios of analyte/IS in both the receiver and donor wells of the transwell plate.
The apparent permeability coefficient Papp (cm/s) was calculated using the equation: Papp=(dCr/dt)×Vr/(A×C0) Where dCr/dt is the cumulative concentration of compound in the receiver chamber as a function of time (μM/s); Vr is the solution volume in the receiver chamber (0.05 mL on the apical side; 0.25 mL on the basolateral side); A is the surface area for the transport, i.e. 0.0804 cm^2 for the area of the monolayer; C0 is the initial concentration in the donor chamber (μM).
Compounds are classified Pgp substrates when efflux ratio (Papp BA/Papp AB) is ≥2.

Series [2] deals with T1, BACE1 (Homo sapiens (Human), UniProt P56817). The series is described as follows: BACE1 binding assay (SPA-based, radioligand). The note with it: pH 4.5, Ki=IC50/(1+L/Kd). Here is the method:
The binding assay was performed as SPA-based assay using a biotinylated form of human BACE1 recombinantly expressed and subsequently purified from Freestyle HEK293 cells. The binding assay was run in a 50 mM sodium acetate buffer, pH 4.5 containing 50 mM NaCl and 0.03% Tween-20 in white clear bottom 384 plates (Corning #3653). 10 nM (final concentration) radioligand ([^3H]-N-((1S,2R)-1-benzyl-3-cyclopropylamino-2-hydroxy-propyl)-5-(methanesulfonyl-methyl-amino)-N-((R)-1-phenyl-ethyl)-isophthalamide) (TRQ11569 purchased from GE Healthcare) was mixed with test compound at a given concentration, 6 nM (final concentration) human BACE1 and 25 μg Streptavidin coated PVT core SPA beads (RPNQ0007, GE Healthcare Life Sciences) in a total volume of 40 μl. Several concentrations of each test compound were tested in the assay for IC50 determination. The plates were incubated for one hour at room temperature and counted in a Wallac Trilux counter. Total and non-specific binding were determined using buffer and 1 μM (final concentration) of the high affinity BACE1 reference inhibitor (S)-6-[3-chloro-5-(5-prop-1-ynyl-pyridin-3-yl)-thiophen-2-yl]-2-imino-3,6-dimethyl-tetrahydro-pyrimidin-4-one, respectively. For each test compound, a IC50 value (the concentration mediating 50% inhibition of the specific binding of the radioligand) was determined from concentration-response curve and used to calculate the Ki from the equation Ki=IC50/(1+L/Kd), where L and Kd are the final concentration of the radioligand used in the assay and the dissociation constant of the radioligand, respectively. The Kd of the radioligand was determined from saturation binding experiments.

The target of series [3] is T1, BACE1. Kind of series: BACE1 efficacy assay (FRET-based, commercial BACE1 kit). The class given is biochemical. The settings on record: 10 μM test compound. Here is the method: The efficacy assay was performed as a FRET-based assay using a commercially available BACE1 kit (Life Technologies, P2985). 2 μl test compound at 10 μM (final concentration) and 15 μl BACE1 enzyme from the kit (final concentration 3 nM) were preincubated for 15 minutes at room temperature before addition of 15 μl of substrate from the kit (250 nM final concentration) and incubated for additional 90 minutes at room temperature. The assay plate was subsequently read in a Pherastar (Ex540/Em590). The enzyme activity observed in presence of test compound were normalized to the enzyme activity observed in presence of buffer and 10 μM (final concentration) of the high affinity BACE1 reference inhibitor (S)-6-[3-Chloro-5-(5-prop-1-ynyl-pyridin-3-yl)-thiophen-2-yl]-2-imino-3,6-dimethyl-tetra-hydropyrimidin-4-one, respectively. The efficacy of the test compounds was evaluated at 10 μM (final concentration) and defined as the percent inhibition of the enzyme activity using the equation % inhibition=100%−normalized enzyme activity in percent.

T1 sequence (P56817 46-501): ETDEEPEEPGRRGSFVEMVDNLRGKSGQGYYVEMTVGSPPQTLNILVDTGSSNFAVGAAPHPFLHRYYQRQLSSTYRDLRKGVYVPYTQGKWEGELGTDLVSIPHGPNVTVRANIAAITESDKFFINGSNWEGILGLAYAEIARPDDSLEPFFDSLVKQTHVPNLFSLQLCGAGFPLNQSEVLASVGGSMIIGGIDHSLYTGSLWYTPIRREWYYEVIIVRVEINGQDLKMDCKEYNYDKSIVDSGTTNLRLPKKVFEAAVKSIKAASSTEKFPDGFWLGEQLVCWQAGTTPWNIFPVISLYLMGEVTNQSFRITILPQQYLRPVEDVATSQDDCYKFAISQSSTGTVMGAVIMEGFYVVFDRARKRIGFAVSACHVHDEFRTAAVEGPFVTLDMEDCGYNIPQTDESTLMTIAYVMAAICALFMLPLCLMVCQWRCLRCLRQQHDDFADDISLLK

As a reminder, the efflux ratio is the permeability from basolateral to apical divided by that in the opposite direction, in the common usage. As usually defined, the Ki is a measure of affinity in units of concentration, obtained from inhibition or displacement. Higher therefore signals a looser hold on the target. What is called inhibition is the change of the read-out against control, counted positive when it falls. Consider `NC1=N[C@](CF)(c2cc(NC(=O)c3ccc(Cl)cn3)ccc2F)C(F)(F)CC1` [Compound 1, (S)-N-(3-(6-amino-3,3-difluoro-2-(fluoromethyl)-2,3,4,5-tetrahydropyridin-2-yl)-4-fluorophenyl)-5-chloropicolinamide], for which, in series [1], the efflux ratio at 60 min, 0.5 μM is 1.75. The Ki in series [2] stood at 5.7 nM. Further, the inhibition at 10 µM in series [3] came to 104%.

On to `NC1=N[C@](CF)(c2cc(NC(=O)c3ccc(F)cn3)ccc2F)C(F)(F)CC1` [Compound 2, (S)-N-(3-(6-amino-3,3-difluoro-2-(fluoromethyl)-2,3,4,5-tetrahydropyridin-2-yl)-4-fluoro-phenyl)-5-fluoropicolinamide], for which the efflux ratio at 60 min, 0.5 μM in series [1] came to 2.6. Also, the Ki in series [2] came out at 22 nM. The inhibition at 10 µM in series [3] was found to be 104%.

As for `COc1cnc(C(=O)Nc2ccc(F)c([C@@]3(CF)N=C(N)CCC3(F)F)c2)cn1` [Compound 3, (S)-N-(3-(6-amino-3,3-difluoro-2-(fluoromethyl)-2,3,4,5-tetrahydropyridin-2-yl)-4-fluoro-phenyl)-5-methoxypyrazine-2-carboxamide], the efflux ratio at 60 min, 0.5 μM in series [1] worked out at 2.84. Besides, in series [2], the affinity, expressed as Ki, was 13 nM. Moreover, the inhibition at 10 µM in series [3] came out at 104%.

Turning to `NC1=N[C@](CF)(c2cc(NC(=O)c3ccn(C(F)F)n3)ccc2F)C(F)(F)CC1` [Compound 4, (S)-N-(3-(6-amino-3,3-difluoro-2-(fluoromethyl)-2,3,4,5-tetrahydropyridin-2-yl)-4-fluorophenyl)-1-(difluoromethyl)-1H-pyrazole-3-carboxamide], the efflux ratio at 60 min, 0.5 μM in series [1] came to 13.8. In series [2], this compound displayed a Ki of 25 nM. For the same compound, the inhibition at 10 µM in series [3] worked out at 104%.

With `NC1=N[C@](CF)(c2cc(NC(=O)c3coc(C(F)F)n3)ccc2F)C(F)(F)CC1` [Compound 5, (S)-N-(3-(6-amino-3,3-difluoro-2-(fluoromethyl)-2,3,4,5-tetrahydropyridin-2-yl)-4-fluoro-phenyl)-2-(difluoromethyl)oxazole-4-carboxamide], the efflux ratio at 60 min, 0.5 μM in series [1] worked out at 7.31. In addition, affinity in series [2] was put at a Ki of 15 nM. Further, the inhibition at 10 µM in series [3] was found to be 102%.

Turning to `N#Cc1ccc(C(=O)Nc2ccc(F)c([C@@]3(CF)N=C(N)CCC3(F)F)c2)nc1` [Compound 6, (S)-N-(3-(6-amino-3,3-difluoro-2-(fluoromethyl)-2,3,4,5-tetrahydropyridin-2-yl)-4-fluoro-phenyl)-5-cyanopicolinamide], the efflux ratio at 60 min, 0.5 μM in series [1] was 2.07. Moreover, the affinity in series [2] corresponds to a Ki of 20 nM. In addition, the inhibition at 10 µM in series [3] came out at 103%.

On to `Cc1nc(C(=O)Nc2ccc(F)c([C@@]3(CF)N=C(N)CCC3(F)F)c2)co1` [Compound 7, (S)-N-(3-(6-amino-3,3-difluoro-2-(fluoromethyl)-2,3,4,5-tetrahydropyridin-2-yl)-4-fluoro-phenyl)-2-methyloxazole-4-carboxamide], for which the efflux ratio at 60 min, 0.5 μM in series [1] came to 4.59. The same compound registered a Ki in series [2] of 32 nM. For the same compound, in series [3], the inhibition at 10 µM worked out at 96%.

Regarding `COc1cnc(C(=O)Nc2ccc(F)c([C@@]3(CF)N=C(N)CCC3(F)F)c2)nc1` [Compound 8, (S)-N-(3-(6-amino-3,3-difluoro-2-(fluoromethyl)-2,3,4,5-tetrahydropyridin-2-yl)-4-fluoro-phenyl)-5-methoxypyrimidine-2-carboxamide], in series [1], the efflux ratio at 60 min, 0.5 μM was found to be 23.4. In series [2], this compound came in with a Ki of 29 nM.

Turning to `NC1=N[C@](CF)(c2cc(NC(=O)c3cnc(C(F)F)cn3)ccc2F)C(F)(F)CC1` [Compound 9, (S)-N-(3-(6-amino-3,3-difluoro-2-(fluoromethyl)-2,3,4,5-tetrahydropyridin-2-yl)-4-fluoro-phenyl)-5-(difluoromethyl)pyrazine-2-carboxamide], in series [1], the efflux ratio at 60 min, 0.5 μM is 1.76. The compound further had a Ki in series [2] of 30 nM. The inhibition at 10 µM in series [3] is 103%.

`Cc1nc(C(=O)Nc2cc(F)c(F)c([C@@]3(CF)N=C(N)CCC3(F)F)c2)co1` [Compound 10, (S)-N-(3-(6-amino-3,3-difluoro-2-(fluoromethyl)-2,3,4,5-tetrahydropyridin-2-yl)-4,5-difluorophenyl)-2-methyloxazole-4-carboxamide]: the efflux ratio at 60 min, 0.5 μM in series [1] was 3.57. This compound also returned a Ki in series [2] of 55 nM. The inhibition at 10 µM in series [3] stood at 102%.

As to `NC1=N[C@](CF)(c2cc(NC(=O)c3ccc(F)cn3)cc(F)c2F)C(F)(F)CC1` [Compound 12, (S)-N-(3-(6-amino-3,3-difluoro-2-(fluoromethyl)-2,3,4,5-tetrahydropyridin-2-yl)-4,5-difluorophenyl)-5-fluoropicolinamide], the efflux ratio at 60 min, 0.5 μM in series [1] was found to be 1.11. This compound returned a Ki in series [2] of 84 nM. In addition, in series [3], the inhibition at 10 µM came out at 101%.

For the compound `NC1=N[C@](CF)(c2cc(NC(=O)c3ccc(Cl)cn3)cc(F)c2F)C(F)(F)CC1` [Compound 13, (S)-N-(3-(6-amino-3,3-difluoro-2-(fluoromethyl)-2,3,4,5-tetrahydropyridin-2-yl)-4,5-difluorophenyl)-5-chloropicolinamide], the efflux ratio at 60 min, 0.5 μM in series [1] is 1.11. The compound further gave a Ki in series [2] of 22 nM. The inhibition at 10 µM in series [3] amounted to 103%.

Consider `N#Cc1ccc(C(=O)Nc2cc(F)c(F)c([C@@]3(CF)N=C(N)CCC3(F)F)c2)nc1` [Compound 14, (S)-N-(3-(6-amino-3,3-difluoro-2-(fluoromethyl)-2,3,4,5-tetrahydropyridin-2-yl)-4,5-difluorophenyl)-5-cyanopicolinamide], for which the efflux ratio at 60 min, 0.5 μM in series [1] stood at 1.81. In series [2], this compound registered a Ki of 23 nM. Besides, in series [3], the inhibition at 10 µM came out at 103%.

As for `[2H]C([2H])([2H])Oc1ccc(C(=O)Nc2cc(F)c(F)c([C@@]3(CF)N=C(N)CCC3(F)F)c2)nc1` [Compound 16, (S)-N-(3-(6-amino-3,3-difluoro-2-(fluoromethyl)-2,3,4,5-tetrahydropyridin-2-yl)-4,5-difluorophenyl)-5-(methoxy-d3)picolinamide], the efflux ratio at 60 min, 0.5 μM in series [1] came out at 1.1. The compound also displayed a Ki in series [2] of 21 nM. Moreover, the inhibition at 10 µM in series [3] stood at 106%.

Turning to `Cc1cc(C#N)cnc1C(=O)Nc1cc(F)c(F)c([C@@]2(CF)N=C(N)CCC2(F)F)c1` [Compound 17, (S)-N-(3-(6-amino-3,3-difluoro-2-(fluoromethyl)-2,3,4,5-tetrahydropyridin-2-yl)-4,5-difluorophenyl)-5-cyano-3-methylpicolinamide], the efflux ratio at 60 min, 0.5 μM in series [1] was 2.21. The Ki in series [2] worked out at 16 nM. In series [3], the inhibition at 10 µM stood at 111%.

Compound `[2H]C([2H])([2H])Oc1ccc(C(=O)Nc2ccc(F)c([C@@]3(CF)N=C(N)CCC3(F)F)c2)nc1` [Compound 18, (S)-N-(3-(6-amino-3,3-difluoro-2-(fluoromethyl)-2,3,4,5-tetrahydropyridin-2-yl)-4-fluorophenyl)-5-(methoxy-d3)picolinamide] yielded a Ki in series [2] of 25 nM. Besides, in series [3], the inhibition at 10 µM is 109%.

For the compound `NC1=N[C@](CF)(c2cc(NC(=O)c3ccc(Br)cn3)ccc2F)C(F)(F)CC1` [Compound 19, (S)-N-(3-(6-amino-3,3-difluoro-2-(fluoromethyl)-2,3,4,5-tetrahydropyridin-2-yl)-4-fluorophenyl)-5-bromopicolinamide], the efflux ratio at 60 min, 0.5 μM in series [1] turned out to be 1.59. This compound also returned a Ki in series [2] of 11 nM.
